What was measured:
human CSNK1D = biological target: T1, human CSNK1D (Homo sapiens, UniProt P48730); experiment: Whole Cell nBRET CSNK1D Binding Assay; details: living CHO cells stably expressing human CSNK1D tagged with nanoluciferase; NanoBret tracer 130 nM; 2 hours at 37 C
T1 construct: expressed in transfected cells

[1] = biological target: T2, human recombinant GST cleaved CSNK1D (Homo sapiens, UniProt P48730); experiment: Purified Enzyme Assay (ADP-Glo CSNK1D Kinase Assay); format: biochemical; details: 2 nM CSNK1D; peptide substrate 150 μM; ATP 20 μM; 45 minutes at room temperature
T2 construct: GST (cleaved yes); purchased University of Dundee clone DU 19064
T2 sequence (P48730 whole entry): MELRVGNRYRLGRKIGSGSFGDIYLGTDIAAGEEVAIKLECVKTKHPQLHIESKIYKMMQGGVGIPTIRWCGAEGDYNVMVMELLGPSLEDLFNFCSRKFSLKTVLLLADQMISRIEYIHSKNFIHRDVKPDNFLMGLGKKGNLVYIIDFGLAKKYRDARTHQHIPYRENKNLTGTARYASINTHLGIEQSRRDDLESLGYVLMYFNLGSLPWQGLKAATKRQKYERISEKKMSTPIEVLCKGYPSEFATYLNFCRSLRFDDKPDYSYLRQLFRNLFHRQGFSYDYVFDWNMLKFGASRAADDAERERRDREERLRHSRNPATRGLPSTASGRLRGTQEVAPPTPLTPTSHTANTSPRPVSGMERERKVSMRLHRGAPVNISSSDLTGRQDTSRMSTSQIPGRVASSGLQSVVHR
Procedure, shortened: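 Percent activity derived from ADP-Glo quantification of ADP produced. Reactions: compound dose-response with human recombinant GST-cleaved CSNK1D, ATP and substrate peptide PLSRTL-pS-VASLPGL, incubated 45 min at room temperature.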

T1 sequence (P48730 whole entry): as above

Compound	IC50 (human CSNK1D)	IC50 [1]
COc1ccc2nccc(-c3c(-c4ccc(F)cn4)nn4c3CC[C@@H]4C)c2n1 [Example 22, 8-[(6S)-2-(5-Fluoro-2-pyridyl)-6-methyl-5,6-dihydro-4H-pyrrolo[1,2-b]pyrazol-3-yl]-2-methoxy-1,5-naphthyridine]	345 nM	23 nM
[2H]C([2H])([2H])C1(C([2H])([2H])[2H])Cn2nc(-c3ccc(F)cn3)c(-c3cc(C(F)F)nc4[nH]ncc34)c2CO1 [Example 402, 3-(6-(Difluoromethyl)-1H-pyrazolo[3,4-b]pyridin-4-yl)-2-(5-fluoropyridin-2-yl)-6,6-bis(methyl-d3)-6,7-dihydro-4H-pyrazolo[5,1-c][1,4]oxazine]	75 nM	5 nM
Cc1cc(-c2c(-c3ccc(F)cn3)nn3c2COCC3(C)C)c2cn[nH]c2n1 [Example 123, 2-(5-Fluoro-2-pyridyl)-7,7-dimethyl-3-(6-methyl-1H-pyrazolo[3,4-b]pyridin-4-yl)-4,6-dihydropyrazolo[5,1-c][1,4]oxazine]	2350 nM	111 nM
CC1(CF)CCc2c(-c3ccncc3)c(-c3ccc(F)cn3)nn2C1 (single isomer, unassigned) [Example 284, (*S)-6-(Fluoromethyl)-2-(5-fluoro-2-pyridyl)-6-methyl-3-(4-pyridyl)-5,7-dihydro-4H-pyrazolo[1,5-a]pyridine]	68 nM	6 nM
C[C@@]1(C(F)(F)F)Cn2nc(-c3ccc(F)cn3)c(-c3ccn4nccc4c3)c2CO1 (single isomer, unassigned) [Example 415, (*S)-2-(5-Fluoropyridin-2-yl)-6-methyl-3-(pyrazolo[1,5-a]pyridin-5-yl)-6-(trifluoromethyl)-6,7-dihydro-4H-pyrazolo[5,1-c][1,4]oxazine]	3890 nM	264 nM
C[C@]1(C(F)(F)F)Cn2nc(-c3ccc(F)cn3)c(-c3ccnc4[nH]ncc34)c2CO1 (single isomer, unassigned) [Example 178, (*R)-2-(5-Fluoropyridin-2-yl)-6-methyl-3-(1H-pyrazolo[3,4-b]pyridin-4-yl)-6-(trifluoromethyl)-6,7-dihydro-4H-pyrazolo[5,1-c][1,4]oxazine]	1000 nM	77 nM
[2H]C([2H])([2H])C1(C([2H])([2H])[2H])Cc2c(-c3c(F)cnc4[nH]ncc34)c(-c3ccc(F)cn3)nn2C1 [Example 243, 5-Fluoro-4-[2-(5-fluoro-2-pyridyl)-5,5-bis(methyl-d3)-4,6-dihydropyrrolo[1,2-b]pyrazol-3-yl]-1H-pyrazolo[3,4-b]pyridine]	49 nM	3 nM
C[C@H]1OCc2c(-c3ccnc4[nH]ncc34)c(-c3ccc(F)cc3)nn2[C@H]1C (relative stereo) [Example 112, (6*R,7*S)-2-(4-Fluorophenyl)-6,7-dimethyl-3-(1H-pyrazolo[3,4-b]pyridin-4-yl)-6,7-dihydro-4H-pyrazolo[5,1-c][1,4]oxazine]	54 nM	3 nM
CC1(C)Cn2nc(-c3ccc(F)cn3)c(-c3ccnc4cn[nH]c34)c2CO1 [Example 139, 2-(5-Fluoropyridin-2-yl)-6,6-dimethyl-3-(1H-pyrazolo[4,3-b]pyridin-7-yl)-6,7-dihydro-4H-pyrazolo[5,1-c][1,4]oxazine]	> 10000 nM	450 nM
CC1(C)Cn2nc(-c3c(F)cncc3F)c(-c3ccnc4[nH]ncc34)c2CO1 [Example 165, 2-(3,5-Difluoropyridin-4-yl)-6,6-dimethyl-3-(1H-pyrazolo[3,4-b]pyridin-4-yl)-6,7-dihydro-4H-pyrazolo[5,1-c][1,4]oxazine]	702 nM	15 nM
Fc1cc(-c2nn3c(c2-c2ccnc4[nH]ncc24)COCC3)ccc1Cl [Example 72, 2-(4-Chloro-3-fluoro-phenyl)-3-(1H-pyrazolo[3,4-b]pyridin-4-yl)-6,7-dihydro-4H-pyrazolo[5,1-c][1,4]oxazine]	482 nM	54 nM
CC1(C)CCc2c(-c3ccnc4[nH]ncc34)c(-c3ccc(F)cn3)nn2C1 [Example 49, 4-[2-(5-Fluoro-2-pyridyl)-6,6-dimethyl-5,7-dihydro-4H-pyrazolo[1,5-a]pyridin-3-yl]-1H-pyrazolo[3,4-b]pyridine]	11 nM	1 nM
CC1(CF)CCc2c(-c3ccnc(N)c3)c(-c3ccc(F)cn3)nn2C1 (single isomer, unassigned) [Example 287, (*R)-4-[6-(Fluoromethyl)-2-(5-fluoro-2-pyridyl)-6-methyl-5,7-dihydro-4H-pyrazolo[1,5-a]pyridin-3-yl]pyridin-2-amine]	68 nM	5 nM
CC(C)[C@@H]1Cn2nc(-c3ccc(F)cn3)c(-c3ccnc4[nH]ncc34)c2CO1 (single isomer, unassigned) [Example 97, (*R)-2-(5-Fluoropyridin-2-yl)-6-isopropyl-3-(1H-pyrazolo[3,4-b]pyridin-4-yl)-6,7-dihydro-4H-pyrazolo[5,1-c][1,4]oxazine]	5050 nM	63 nM
CC1(C)Cn2nc(-c3ccc(F)cn3)c(-c3cc(N)n4nccc4c3)c2CO1 [Example 380, 5-[2-(5-Fluoro-2-pyridyl)-6,6-dimethyl-4,7-dihydropyrazolo[5,1-c][1,4]oxazin-3-yl]pyrazolo[1,5-a]pyridin-7-amine]	93 nM	10 nM
Cc1cc(-c2c(-c3ccc(F)cc3)nn3c2COCC32CC2)c2cn[nH]c2n1 [Example 107, 2′-(4-Fluorophenyl)-3′-(6-methyl-1H-pyrazolo[3,4-b]pyridin-4-yl)-4′H,6′H-spiro[cyclopropane-1,7-pyrazolo[5,1-c][1,4]oxazine]]	72 nM	9 nM
Cc1nc(-c2c(-c3ccc(F)cn3)nn3c2CC[C@H]2[C@@H]3C2(F)F)c2cn[nH]c2n1 (single isomer, unassigned) [Example 361, (5a*S,6a*R)-6,6-Difluoro-2-(5-fluoropyridin-2-yl)-3-(6-methyl-1H-pyrazolo[3,4-d]pyrimidin-4-yl)-5,5a,6,6a-tetrahydro-4H-cyclopropa[e]pyrazolo[1,5-a]pyridine]	349 nM	497 nM

Continued, values first:

IC50 (human CSNK1D)	IC50 [1]	Compound
38 nM	3 nM	Cc1cc(-c2c(-c3ccc(F)cn3)nn3c2OCC(C)C3)c2cn[nH]c2n1 (stereo not drawn) [Example 197, 2-(5-Fluoropyridin-2-yl)-6-methyl-3-(6-methyl-1H-pyrazolo[3,4-b]pyridin-4-yl)-6,7-dihydro-5H-pyrazolo[5,1-b][1,3]oxazine]
11 nM	5 nM	Cc1cc(-c2c(-c3ccc(F)cn3)nn3c2OCC2(CC2)C3)c2c(Cl)n[nH]c2n1 [Example 464, 3′-(3-Chloro-6-methyl-1H-pyrazolo[3,4-b]pyridin-4-yl)-2′-(5-fluoropyridin-2-yl)-5′H,7′H-spiro[cyclopropane-1,6′-pyrazolo[5,1-b][1,3]oxazine]]
19 nM	4 nM	[2H]C([2H])([2H])[C@@]1(C(F)(F)F)Cn2nc(-c3ccc(F)cn3)c(-c3ccnc4[nH]nc(Cl)c34)c2CO1 (single isomer, unassigned) [Example 427, (*S)-3-(3-Chloro-1H-pyrazolo[3,4-b]pyridin-4-yl)-2-(5-fluoropyridin-2-yl)-6-(methyl-d3)-6-(trifluoromethyl)-6,7-dihydro-4H-pyrazolo[5,1-c][1,4]oxazine]
35 nM	3 nM	Cc1nc(-c2c(-c3ccc(F)cc3)nn3c2OCC2(CC2)C3)c2cn[nH]c2n1 [Example 465, 2′-(4-Fluorophenyl)-3′-(6-methyl-1H-pyrazolo[3,4-d]pyrimidin-4-yl)-5′H,7′H-spiro[cyclopropane-1,6′-pyrazolo[5,1-b][1,3]oxazine]]
14 nM	1 nM	Nc1cc(-c2c(-c3ccc(F)cc3)nn3c2C[C@H](F)C3)ccn1 [Example 10, (S)-4-(5-Fluoro-2-(4-fluorophenyl)-5,6-dihydro-4H-pyrrolo[1,2-b]pyrazol-3-yl)pyridin-2-amine]
24 nM	3 nM	Cc1nc2[nH]ncc2c(-c2c(-c3ccc(F)cn3)nn3c2CO[C@@](C)(C(F)(F)F)C3)c1F (single isomer, unassigned) [Example 420, (*R)-3-(5-Fluoro-6-methyl-1H-pyrazolo[3,4-b]pyridin-4-yl)-2-(5-fluoropyridin-2-yl)-6-methyl-6-(trifluoromethyl)-6,7-dihydro-4H-pyrazolo[5,1-c][1,4]oxazine]
15 nM	2 nM	Fc1ccc(-c2nn3c(c2-c2ccnc4[nH]ncc24)OCCC3)cc1 [Example 184, 2-(4-Fluorophenyl)-3-(1H-pyrazolo[3,4-b]pyridin-4-yl)-6,7-dihydro-5H-pyrazolo[5,1-b][1,3]oxazine]
3 nM	1 nM	Cc1cc(-c2c(-c3ccc(F)cc3)nn3c2CC(C)(C)C3)c2cn[nH]c2n1 [Example 232, 4-[2-(4-Fluorophenyl)-5,5-dimethyl-4,6-dihydropyrrolo[1,2-b]pyrazol-3-yl]-6-methyl-1H-pyrazolo[3,4-b]pyridine]
26 nM	7 nM	CC1(C)Cn2nc(-c3ccc(F)cn3)c(-c3c(F)cnc4[nH]nc(Cl)c34)c2CO1 [Example 392, 3-(3-Chloro-5-fluoro-1H-pyrazolo[3,4-b]pyridin-4-yl)-2-(5-fluoropyridin-2-yl)-6,6-dimethyl-6,7-dihydro-4H-pyrazolo[5,1-c][1,4]oxazine]
17 nM	1 nM	Cc1cc(-c2c(-c3ccc(F)cc3)nn3c2OCCC3)c2cn[nH]c2n1 [Example 185, 2-(4-Fluorophenyl)-3-(6-methyl-1H-pyrazolo[3,4-b]pyridin-4-yl)-6,7-dihydro-5H-pyrazolo[5,1-b][1,3]oxazine]

From patent publication US20230339970A1, “CASEIN KINASE 1 DELTA MODULATORS” (priority 2020, published 2023)
